# Values of other authors in patent US7553503B2, “Phyto-nutraceutical synergistic composition for Parkinson's Disease” (priority 2006, dated 2009).
# Experiments:
# ischemic brain injury = conditions: transient focal ischemia
# [1] = system: bacterial resistance mechanism (multidrug pump); conditions: in vitro, with 5'-methoxyhydnocarpin
# [2] = system: HIV-1 viral long terminal repeat-directed gene expression
# substantia nigra neurons = conditions: MPTP-induced
# [3] = system: brain mitochondria and membranes
# mouse brain = conditions: pretreatment
# [4] = system: patients with early-stage Parkinson's disease
# [5] = system: alpha 2-adrenergic receptors
# [6] = system: dopamine and DOPAC in striatum, DA in hypothalamus; conditions: after administration
# dopamine D1 receptors = dopamine D1 receptors (Homo sapiens, UniProt P21728)
# dopamine D2 receptors = dopamine D2 receptors (Homo sapiens, UniProt P14416)
# [7] = system: alpha 1-adrenergic receptors
# [8] = system: patients with tardive dyskinesia; conditions: especially tardive dyskinesia for 5 years or less
# Sequence of dopamine D1 receptors (P21728 whole entry): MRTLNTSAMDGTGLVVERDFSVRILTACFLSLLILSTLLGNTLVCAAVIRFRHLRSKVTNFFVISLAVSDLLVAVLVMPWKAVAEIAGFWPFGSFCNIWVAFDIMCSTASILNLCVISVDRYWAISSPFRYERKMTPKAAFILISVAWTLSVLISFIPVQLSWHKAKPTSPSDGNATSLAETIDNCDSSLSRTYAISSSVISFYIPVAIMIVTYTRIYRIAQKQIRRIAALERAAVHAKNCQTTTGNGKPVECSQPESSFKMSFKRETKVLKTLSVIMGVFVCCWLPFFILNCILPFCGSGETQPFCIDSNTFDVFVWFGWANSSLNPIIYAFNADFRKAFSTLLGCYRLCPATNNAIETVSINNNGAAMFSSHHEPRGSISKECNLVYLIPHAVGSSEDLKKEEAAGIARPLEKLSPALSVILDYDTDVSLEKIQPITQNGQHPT
# Sequence of dopamine D2 receptors (P14416 whole entry): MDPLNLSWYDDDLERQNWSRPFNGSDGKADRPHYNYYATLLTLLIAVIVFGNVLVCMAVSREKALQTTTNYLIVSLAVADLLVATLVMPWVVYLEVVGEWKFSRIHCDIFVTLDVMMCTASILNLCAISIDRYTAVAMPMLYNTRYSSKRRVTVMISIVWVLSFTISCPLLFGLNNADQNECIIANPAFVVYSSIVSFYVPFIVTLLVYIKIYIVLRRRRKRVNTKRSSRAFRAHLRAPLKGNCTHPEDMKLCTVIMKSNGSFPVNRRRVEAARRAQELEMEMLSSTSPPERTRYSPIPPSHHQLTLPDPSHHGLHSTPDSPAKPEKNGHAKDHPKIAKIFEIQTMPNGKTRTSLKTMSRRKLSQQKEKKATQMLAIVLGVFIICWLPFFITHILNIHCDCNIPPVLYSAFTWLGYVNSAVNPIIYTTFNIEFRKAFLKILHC
compound,measurement,setting,value
CC(C)(O)[C@@H]1CC[C@](C)([C@H]2[C@@H](O)C[C@@]3(C)[C@@H]4C[C@H](O[C@@H]5O[C@H](CO)[C@@H](O)[C@H](O)[C@H]5O)[C@H]5C(C)(C)[C@@H](O[C@@H]6OC[C@@H](O)[C@H](O)[C@H]6O)CC[C@@]56C[C@@]46CC[C@]23C)O1 [Astragaloside IV],infarct volume,ischemic brain injury,markedly and significantly reduced
COc1ccc2cc3[n+](cc2c1OC)CCc1cc2c(cc1-3)OCO2 [Berberine],activity of Berberine alkaloids in the presence of 5'-MHC,[1],strongly potentiated
CC1(C)CCC2=C(O1)c1ccccc1C(=O)C2=O [Beta-lapachone],inhibition of HIV-1 viral long terminal repeat-directed gene expression,[2],potent and selective inhibitor
CC(C)=CCC[C@](C)(O[C@@H]1O[C@H](CO)[C@@H](O)[C@H](O)[C@H]1O)[C@H]1CC[C@]2(C)[C@@H]1[C@H](O)C[C@@H]1[C@@]3(C)CC[C@H](O)C(C)(C)[C@@H]3[C@@H](O[C@@H]3O[C@H](CO)[C@@H](O)[C@H](O)[C@H]3O)C[C@]12C [Ginsenoside Rg1],substantia nigra neurons loss,substantia nigra neurons,protect against substantia nigra neurons loss
COc1cc2c(c(O)c1OC)-c1c(cc(OC)c(OC)c1OC)C[C@@H](C)[C@@H](C)C2 [Schisanhenol],peroxidative damages of brain mitochondria and membranes,[3],completely inhibited
COc1cc2c(c(OC)c1OC)-c1c(cc(OC)c(OC)c1OC)C[C@](C)(O)[C@@H](C)C2 [Schizandrin],potency of protective action against oxidative stress relative to Schisanhenol,[3],weaker than that of Schisanhenol
COc1cc2c(c(OC)c1OC)-c1c(cc3c(c1OC)OCO3)CC(C)C(C)C2 (stereo not drawn) [Schizandrins B],extent of lipid peroxidation in brain tissue,mouse brain,dose-dependent decrease
"COC1=C(OC)C(=O)C(C/C=C(\C)CC/C=C(\C)CC/C=C(\C)CC/C=C(\C)CC/C=C(\C)CC/C=C(\C)CC/C=C(\C)CC/C=C(\C)CC/C=C(\C)CCC=C(C)C)=C(C)C1=O [coenzyme Q10, Coenzyme Q10]",disease progression,[4],can slow disease progression
COc1cc2c(c(OC)c1OC)-c1c(cc(OC)c(OC)c1OC)C[C@](C)(O)[C@@H](C)C2 [schizandrol A],affinity for alpha 2-adrenergic receptors,[5],no affinity
same,affinity for serotonin receptors,serotonin receptors,no affinity
same,dopamine and its metabolite DOPAC (in striatum) and DA (in hypothalamus),[6],Significant elevations
same,affinity for dopamine D1 receptors,dopamine D1 receptors,no affinity
same,affinity for dopamine D2 receptors,dopamine D2 receptors,no affinity
same,affinity for alpha 1-adrenergic receptors,[7],no affinity
Vitamin E,severity of tardive dyskinesia,[8],appears to be effective
